One compound from ChEMBL document CHEMBL3526085, “Decreased hepatic breast cancer resistance protein expression and function in multidrug resistance-associated protein 2-deficient (TR⁻) rats” (Drug Metab Dispos, 2011) can be followed below.

The test system of the series is Hepatocyte. As to conditions: rat, hepatocytes, 10 min, 5 µM.

The compound `O=C(O)C[C@H](O)C[C@H](O)/C=C/c1c(C2CC2)nc2ccccc2c1-c1ccc(F)cc1` [PITAVASTATIN] had a CLb of 52%.
